As usually defined, the Ki is a measure of affinity in units of concentration, obtained from inhibition or displacement.

For this experiment, the target named is T1, Adenosine receptor A3 (Homo sapiens, UniProt P0DMS8).
T1 sequence (P0DMS8 whole entry): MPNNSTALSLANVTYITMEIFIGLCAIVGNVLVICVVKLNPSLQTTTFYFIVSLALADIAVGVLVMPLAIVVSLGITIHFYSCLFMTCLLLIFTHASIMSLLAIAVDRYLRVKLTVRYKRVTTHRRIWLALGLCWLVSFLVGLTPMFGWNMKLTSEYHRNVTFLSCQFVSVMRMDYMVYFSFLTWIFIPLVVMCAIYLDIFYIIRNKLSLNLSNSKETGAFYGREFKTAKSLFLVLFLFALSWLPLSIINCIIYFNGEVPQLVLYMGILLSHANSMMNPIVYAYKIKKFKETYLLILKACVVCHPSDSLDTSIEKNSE
Description: Binding affinity for human adenosine A3 receptor
`CC(C)=CCn1cc2c(nc(N)n3nc(-c4ccco4)nc23)n1` had a Ki of 811 nM.

In turn, `CCCCCCCCn1cc2c(nc(NC(=O)Nc3ccc(C)cc3)n3nc(-c4ccco4)nc23)n1` yielded a Ki of 4.48 nM.

Consider `CC(C)(C)NC(=O)Nc1nc2nn(CCc3ccccc3)cc2c2nc(-c3ccco3)nn12`, for which the Ki is 4.9 nM.

For the compound `CC(C)CCn1cc2c(nc(NC(=O)NC(C)(C)C)n3nc(-c4ccco4)nc23)n1`, the Ki is 39 nM.

Compound `Cc1ccc(NC(=O)Nc2nc3nn(CCC(C)C)cc3c3nc(-c4ccco4)nn23)cc1` showed a Ki of 7.41 nM.

As for `CCOC(=O)Cc1ccc(NC(=O)Nc2nc3nn(C)cc3c3nc(-c4ccco4)nn23)cc1`, the Ki stood at 0.82 nM.

Consider `O=C(Nc1nc2nn(CC3CCCCC3)cc2c2nc(-c3ccco3)nn12)NC1CCCCC1`, for which the Ki was determined as 6.7 nM. This Ki is about 8.2-fold higher than that of the compound before.

With `NCC(=O)Nc1nc2nn(CCc3ccccc3)cc2c2nc(-c3ccco3)nn12`, affinity was put at a Ki of 163 nM.

`CCCCCCCCn1cc2c(nc(NC(=O)NCCCCC)n3nc(-c4ccco4)nc23)n1`: the inhibitory constant (Ki) was found to be 7.83 nM.

In the case of `CC(C)CCn1cc2c(nc(NC(=O)CCCN)n3nc(-c4ccco4)nc23)n1`, the Ki is 90 nM.

The compound `CC(C)(C)NC(=O)Nc1nc2nn(CCCc3ccccc3)cc2c2nc(-c3ccco3)nn12` registered a Ki of 65 nM.

As to `CCCCCCCCn1cc2c(nc(NC(=O)Nc3ccc(CC(=O)OCC)cc3)n3nc(-c4ccco4)nc23)n1`, the Ki was 9.97 nM.

Turning to `CCCCCNC(=O)Nc1nc2nn(CC3CCCCC3)cc2c2nc(-c3ccco3)nn12`, the Ki is 3.98 nM.

Compound `CCOC(=O)Cc1ccc(NC(=O)Nc2nc3nn(CC4CCCCC4)cc3c3nc(-c4ccco4)nn23)cc1` gave a Ki of 6.95 nM.

`Nc1nc2nn(CC3CCCCC3)cc2c2nc(-c3ccco3)nn12` yielded a Ki of 1720 nM.

On to `CC(C)CCn1cc2c(nc(NC(=O)NC(C)C)n3nc(-c4ccco4)nc23)n1`, for which the Ki stood at 65 nM.

Consider `CCCCCCCCn1cc2c(nc(NC(=O)NC3CCCCC3)n3nc(-c4ccco4)nc23)n1`, for which affinity was put at a Ki of 16.3 nM.

In turn, `CCCn1cc2c(nc(NC(=O)NC(C)(C)C)n3nc(-c4ccco4)nc23)n1` yielded a Ki of 15 nM.

In turn, `Cc1ccc(NC(=O)Nc2nc3nn(CC4CCCCC4)cc3c3nc(-c4ccco4)nn23)cc1` displayed a Ki of 5.94 nM.

For `CC(C)(C)OC(=O)NCCCC(=O)Nc1nc2nn(CCc3ccccc3)cc2c2nc(-c3ccco3)nn12`, the affinity, expressed as Ki, was 1480 nM.

In turn, `CCCCCCCCn1cc2c(nc(N)n3nc(-c4ccco4)nc23)n1` showed a Ki of 2050 nM.

In turn, `CC(C)CCn1cc2c(nc(NC(=O)NC3CCCCC3)n3nc(-c4ccco4)nc23)n1` came in with an inhibition constant (Ki) of 20.5 nM.

In turn, `CC(C)NC(=O)Nc1nc2nn(CCc3ccccc3)cc2c2nc(-c3ccco3)nn12` had a Ki of 9 nM. This Ki lies about 2.3-fold lower than the previous one.

Compound `CCCCCNC(=O)Nc1nc2nn(C)cc2c2nc(-c3ccco3)nn12` returned a Ki of 1.95 nM.

`CCCCCNC(=O)Nc1nc2nn(CCC(C)C)cc2c2nc(-c3ccco3)nn12` came in with a Ki of 8.09 nM.

Consider `NCCCC(=O)Nc1nc2nn(CCc3ccccc3)cc2c2nc(-c3ccco3)nn12`, for which affinity was put at a Ki of 65 nM.

Turning to `NCCC(=O)Nc1nc2nn(CCc3ccccc3)cc2c2nc(-c3ccco3)nn12`, the Ki came out at 80 nM.

The compound `CCOC(=O)Cc1ccc(NC(=O)Nc2nc3nn(CCC(C)C)cc3c3nc(-c4ccco4)nn23)cc1` came in with a Ki of 11.9 nM.

Consider `CC(C)NC(=O)Nc1nc2nn(CCCc3ccccc3)cc2c2nc(-c3ccco3)nn12`, for which the Ki amounted to 55 nM. This Ki lies about 4.6-fold higher than the previous one.

As for `CC(C)CCn1cc2c(nc(NC(=O)CCCNC(=O)OC(C)(C)C)n3nc(-c4ccco4)nc23)n1`, the Ki is 2490 nM.

For the compound `CCCn1cc2c(nc(NC(=O)NC(C)C)n3nc(-c4ccco4)nc23)n1`, the affinity corresponds to a Ki of 21 nM. Compared with the last compound, the Ki is about 120-fold lower.

These data come from ChEMBL document CHEMBL1145284, “Combined target-based and ligand-based drug design approach as a tool to define a novel 3D-pharmacophore model of human A3 adenosine receptor antagonists: pyrazolo[4,3-e]1,2,4-triazolo[1,5-c]pyrimidine derivatives as a key study” (J Med Chem, 2005).
